Data taken from patent US20230174636A1, “COMPOSITIONS AND METHODS FOR TREATING CANCER” (RUSH UNIVERSITY MEDICAL CENTER, priority 2020, published 2023).
Where no end group is shown, it is not given here. [ ]: non-standard residue; d: D form.

What was measured:
BT-549 cells = test: MTT assay (cell viability), BT-549; assay type: cell-based, human; details: BT-549, 48 h, serum-free, combined with mAb a3-3a
Procedure: (§1) MTT assay: Mitochondrial activity was measured with the 3-(4, 5-dimethylthiazol-2-yl)-2, 5-diphenyltetrazolium bromide (MTT) assay (Sigma) as described before. The cells were grown on 24-well culture plates with 500 μl of medium and treated with various reagents according to the experimental design. At the end of the treatment period, 300 μl of culture medium were removed from each well, and 20 μl of MTT solution (5 mg/ml) were added and incubated for 1 h.

TNBC tumor [1] = test: Tumor size in PDX mouse model of TNBC; assay type: in vivo, mice; details: for shrinkage of TNBC tumor in mAb a3-3a-treated mice / tumor shrinkage in mAb a3-3a-treated TNBC mice: peptide 0.1 mg/kg daily intranasal plus a3-3a 2 mg/kg weekly i.p.; for shrinkage of TNBC tumor in mAb a3-3a-treated mice: 3 weeks; for tumor shrinkage in mAb a3-3a-treated TNBC mice: three weeks; for p40 mAb a3-3a-mediated reduction of TNBC tumor: peptide 0.1 mg/kg daily intranasal plus p40 mAb 2 mg/kg weekly, 2 weeks, infrared imaging
From the text: Animals: Animal maintaining and experiments were in accordance with National Institute of Health guidelines and were approved by the Institutional Animal Care and Use committee of the Rush University of Medical Center, Chicago, Ill. Patient-derived xenograft (PDX) model (ID # TM00096) was purchased from Jackson Laboratory, Bar Harbor, Me., USA. In this model, TNBC tumor fragments at passage P1-P9 (invasive ductal carcinoma; TNBC ER^−PR^−HER2^−) were engrafted in the flank of female 6-8 week old NOD scid gamma (NSG) mice. Mice were shipped to us by Jackson Laboratory within ˜2 weeks following tumor engraftment. PDX mice were maintained in our temperature-controlled animal vivarium with adequate food and water.
Tumor measurement: Tumor growth was measured with a caliper and tumor cross-sectional area was determined with the formula (mm^2=longest diameter X shortest diameter). Treatment with p40 mAb started when the tumor sizes reached 0.6-0.8 cm^2 in area. The p40 mAb a3-3a was injected once a week intraperitoneally in 0.1 ml volume of sterile PBS-1% normal mouse serum. The tumors were then measured to determine progression or regression. Infrared dye (Alexa 800-conjugated 2DG dye; Licor) was injected via tail-vein on the day before imaging analysis. Mice were sacrificed at the end of the study and tumor tissues were collected for different biochemical analyses.

splenocytes = test: FACS of T cells in splenocytes of PDX mice; assay type: in vivo; details: intranasal peptide plus p40 mAb, 3 weeks
Procedure: Isolation of splenocytes: Spleens isolated from treated or untreated PDX mice were placed into a cell strainer and mashed with a syringe plunger. Resulting single-cell suspensions were treated with RBC lysis buffer (Sigma-Aldrich), washed, and cultured in RPMI 1640 supplemented with 10% FBS, 50 μM 2-ME, 2 mM L-glutamine, 100 U/ml penicillin, and 100 μg/ml streptomycin.
Flow cytometry: Single-cell suspensions isolated from mouse spleen or tumor were stained with Zombie Aqua™ Fixable Viability Kit (Biolegend) according to the manufacturer's instructions. Cells were washed with FACS buffer (ThermoFisher) and stained with FITC-anti-human CD4 antibody and APC/Cy7-anti-human CD8 antibody (Biolegend) for extracellular stains. For IFNγ staining, cells were stained with PE-anti-human IFNγ antibody (Biolegend) and detected by flow cytometry analysis. Only PE-treated and unstained cells served as control. Flow cytometric analyses were performed using the LSRFortessa analyzer (BD Biosciences) and analyzed using the FlowJo Software (v10) as described.

[2] = tested on: Hep3B (human liver cancer cells); test: MTT assay (cell viability), Hep3B; assay type: cell-based; details: 48 h, serum-free, combined with mAb a3-3a
Procedure: as §1

MCF-7 cells = test: MTT assay (cell viability), MCF-7; assay type: cell-based, human; details: MCF-7, 48 h, serum-free, combined with mAb a3-3a
Procedure: as §1

TNBC tumor [3] = test: H&E staining of tumor sections of PDX mice; assay type: in vivo; details: peptide 0.1 mg/kg daily intranasal plus p40 mAb 2 mg/kg weekly, 2 weeks
IFNγ, IL-10 = test: Serum IFNγ and IL-10 by sandwich ELISA in PDX mice; assay type: in vivo; details: peptide 0.1 mg/kg daily intranasal plus p40 mAb, 2 weeks
Procedure: (§2) Sandwich ELISA: Sandwich ELISA was used to quantify p402 and p40 as described by us. Briefly, for p402, mAb a3-1d (1.3 mg/mL) was diluted 1:3000 and added to each well (100 μL/well) of a 96-well ELISA plate for coating. The biotinylated p402 mAb d7-12c (2 mg/mL) was diluted 1:3000 and used as detection antibody. Similarly for p40, mAb a3-3a (1.3 mg/mL) and biotinylated p40 mAb a3-7g (2 mg/mL) were also diluted 1:3000 and used as coating and detection antibodies, respectively. Concentrations of IFN-γ, IL-12, IL-23, and IL-10 were measured in serum or tissue homogenates by ELISA (eBioscience/ThermoFisher), according to the manufacturer's instructions as described before.

human IFNγ, human IL-10 = test: IFNγ and IL-10 in tumor tissue extracts by sandwich ELISA; assay type: in vivo, mice; details: peptide 0.1 mg/kg daily intranasal plus p40 mAb, 2 weeks
Procedure: FIG. 23A-23B. Intranasal wtTIDM peptide stimulates the p40 mAb-mediated induction of IFNγ while reducing the level of IL-10 in TNBC tumor tissues of patient-derived xenograft (PDX) mice. Female 6-8 week old NOD scid gamma (NSG) mice were engrafted TNBC tumor fragments at passage P1-P9 (invasive ductal carcinoma; TNBC ER^−/−/PR^−/−/HER2^−/−) in the flank. After about 4 weeks of engraftment, when tumors of PDX mice were 0.6-0.8 cm^2 in size, mice were treated with p40 mAb and hamster IgG at a dose of 2 mg/kg body wt once a week. Mice were also treated with wild type (wt) and mutated (m) TLR2-interacting domain of MyD88 (TIDM) peptide at a dose of 0.1 mg/kg body wt daily via intranasal route. After 2 weeks of treatment, levels of human IFNγ (23A) and human IL-10 (23B) were measured in tumor tissue extracts by sandwich ELISA (Thermofisher). Results are mean±SEM of 6-7 mice per group. ***p<0.001.
as §2

Substance | death induced by p40 mAb a3-3a in presence of NBD peptide (MTT) (BT-549 cells) | shrinkage of TNBC tumor in mAb a3-3a-treated mice (TNBC tumor [1]) | Tc1 (CD8+IFNγ+) response in p40 mAb-treated TNBC mice (splenocytes) | death induced by p40 mAb a3-3a in presence of NBD peptide (MTT) [2] | death induced by p40 mAb a3-3a in presence of NBD peptide (MTT) (MCF-7 cells) | death by combination of mAb a3-3a and TIDM peptide (MTT) (BT-549 cells) | tumor shrinkage in mAb a3-3a-treated TNBC mice (TNBC tumor [1]) | p40 mAb a3-3a-mediated reduction of TNBC tumor (TNBC tumor [1]) | death of TNBC tumor in p40 mAb a3-3a-treated mice (H&E) (TNBC tumor [3]) | p40 mAb a3-3a-mediated induction of IFNγ in serum (IFNγ, IL-10) | p40 mAb a3-3a-mediated reduction of IL-10 in serum (IFNγ, IL-10) | death by combination of mAb a3-3a and TIDM peptide (MTT) [2] | death by combination of mAb a3-3a and TIDM peptide (MTT) (MCF-7 cells) | p40 mAb a3-3a-mediated induction of IFNγ in tumor tissues (human IFNγ, human IL-10) | p40 mAb a3-3a-mediated reduction of IL-10 in tumor tissues (human IFNγ, human IL-10)
NEMO-binding domain (NBD) peptide [wtNBD] | greater death | greater shrinkage | markedly stimulated | greater death | greater death |  |  |  |  |  |  |  |  |  | 
TLR2-interacting domain of MyD88 (TIDM) peptide (DRQIKIWFQNRRMKWKKPGAHQK; not fully specified (some residues)) [wtTIDM] |  |  | markedly stimulated |  |  | markedly induced death | greater tumor shrinkage | significantly stimulated | stimulated the death | stimulated | potentiated | markedly induced death | markedly induced death | stimulated | potentiated
mNBD: Mutated (m) NBD control peptide, drqikiwfqnrrmkwkkLDASAL (SEQ ID NO: 9) ([dD][dR][dQ][dI][dK][dI][dW][dF][dQ][dN][dR][dR][dM][dK][dW][dK][dK]LDASAL) [reference compound] | not seen | did not exhibit such effect |  | not seen | not seen |  |  |  |  |  |  |  |  |  | 
mTIDM: Mutated (m) TIDM control peptide, drqikiwfqnrmikwkkPGWHGD (SEQ ID NO.: 5) ([dD][dR][dQ][dI][dK][dI][dW][dF][dQ][dN][dR][dM][dI][dK][dW][dK][dK]PGWHGD) [reference compound] |  |  |  |  |  | not | not | remained unable to stimulate | not | not | not | not | not | not | not
